The numbers were not newly measured in article PMC9494641 (ACS Omega, 2022), which cites them from elsewhere.

A value given as a limit tells only on which side of the number the result lay.

Data set [1] relates to JAK2 expressing SET-2 cell line.
The target of another data set is JAK2 (Homo sapiens, UniProt O60674). To be noted: read-out: Kd JAK2.
In the next data set the test system is JAK1. To be noted: read-out: IC50 JAK1.

Sequence of JAK2 (O60674 808-1132 limits assumed): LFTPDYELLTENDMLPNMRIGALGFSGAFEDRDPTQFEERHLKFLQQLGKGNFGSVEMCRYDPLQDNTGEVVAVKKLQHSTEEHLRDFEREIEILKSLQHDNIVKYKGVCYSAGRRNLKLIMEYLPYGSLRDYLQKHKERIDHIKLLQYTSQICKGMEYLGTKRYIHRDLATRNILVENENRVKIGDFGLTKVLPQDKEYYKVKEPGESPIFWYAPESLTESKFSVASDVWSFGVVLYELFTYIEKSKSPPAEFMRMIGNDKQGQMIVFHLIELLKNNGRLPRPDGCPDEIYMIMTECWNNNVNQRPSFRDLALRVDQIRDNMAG

As usually defined, the IC50 is the point on the concentration scale where inhibition reaches its midpoint. On to `Cc1cc(Nc2nc(N[C@@H](C)c3ccc(F)cc3)c(C#N)cc2F)[nH]n1` [AZ960], for which the IC50 in data set [1] was under 3 nM.
In general, Kd refers to the free concentration of one partner at which half of the binding sites on the other are occupied at equilibrium, for simple one-to-one binding. For the molecule `CCN(CC)CCC(CNc1ccnc2cc(Cl)ccc12)c1ccc(O)cc1` (stereo not drawn) [NSC13626], the Kd at JAK2 is 6600 nM.
For `N#CC[C@H](C1CCCC1)n1cc(-c2ncnc3[nH]ccc23)cn1` [Ruxolitinib], the IC50 with JAK1 was […].
